{
  "source": "patent US12509462B2",
  "about": "“3-(phenylsulfonyl)-[1,2,3]triazolo[1,5A]quinazolin-5(4H)-one derivatives” (BIOVERSYS AG, priority 2018, dated 2025)",
  "origin": "cited, not measured here",
  "system": "hla, psmα and pvl",
  "conditions": "across all four agr groups; cited from earlier work",
  "data": [
    {"smiles": "CC(C)c1ccc(S(=O)(=O)c2nnn3c2nc(O)c2ccccc23)cc1", "note": "[Savirin, reference compound]", "values": [
      {"measurement": "Modulation of AgrA-regulated toxin gene transcription such as hla, psmα and pvl", "value": "potent modulator"}
    ]}
  ]
}
